Experimental data as given in PubChem BioAssay (NCI).
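Dose response: 5 concentrations. Exposure: 48 h. Format: 96-well plates. Endpoint: linear interpolation; highest concentration if not reached. Abbreviation: GI50, concentration required for 50% inhibition of growth. TGI denotes the concentration required for complete inhibition of growth.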

Assays:
Assay in all cases: growth of human tumour cells (NCI), 48 h
786-0 renal = test system: 786-0 renal
U251 CNS = test system: U251 CNS
BT-549 breast = test system: BT-549 breast
HCC-2998 colon = test system: HCC-2998 colon
SK-MEL-28 melanoma = test system: SK-MEL-28 melanoma
MCF7 breast = test system: MCF7 breast
UACC-62 melanoma = test system: UACC-62 melanoma
NCI/ADR-RES ovarian = test system: NCI/ADR-RES ovarian
DU-145 prostate = test system: DU-145 prostate
HCT-15 colon = test system: HCT-15 colon
SF-295 CNS = test system: SF-295 CNS
M14 melanoma = test system: M14 melanoma
KM12 colon = test system: KM12 colon
SNB-19 CNS = test system: SNB-19 CNS
UO-31 renal = test system: UO-31 renal
SNB-75 CNS = test system: SNB-75 CNS
NCI-H460 lung = test system: NCI-H460 lung
RXF 393 renal = test system: RXF 393 renal
K-562 leukemia = test system: K-562 leukemia
COLO 205 colon = test system: COLO 205 colon
TK-10 renal = test system: TK-10 renal
HOP-92 NSCLC = test system: HOP-92 NSCLC
SF-539 CNS = test system: SF-539 CNS
NCI-H226 lung = test system: NCI-H226 lung
LOX IMVI melanoma = test system: LOX IMVI melanoma
SK-MEL-2 melanoma = test system: SK-MEL-2 melanoma
SF-268 CNS = test system: SF-268 CNS
HT29 colon = test system: HT29 colon
RPMI-8226 leukemia = test system: RPMI-8226 leukemia
HOP-62 NSCLC = test system: HOP-62 NSCLC
IGROV1 ovarian = test system: IGROV1 ovarian
CAKI-1 renal = test system: CAKI-1 renal
OVCAR-3 ovarian = test system: OVCAR-3 ovarian
A498 renal = test system: A498 renal
OVCAR-8 ovarian = test system: OVCAR-8 ovarian
MALME-3M melanoma = test system: MALME-3M melanoma
OVCAR-5 ovarian = test system: OVCAR-5 ovarian
ACHN renal = test system: ACHN renal
SR leukemia = test system: SR leukemia
T-47D breast = test system: T-47D breast
NCI-H522 lung = test system: NCI-H522 lung
MDA-MB-435 = test system: MDA-MB-435
NCI-H23 lung = test system: NCI-H23 lung
SK-MEL-5 melanoma = test system: SK-MEL-5 melanoma
SN12C renal = test system: SN12C renal
SW-620 colon = test system: SW-620 colon
MDA-MB-231 breast = test system: MDA-MB-231 breast
PC-3 prostate = test system: PC-3 prostate
HL-60(TB) leukemia = test system: HL-60(TB) leukemia
SK-OV-3 ovarian = test system: SK-OV-3 ovarian
HCT-116 colon = test system: HCT-116 colon
A549 NSCLC = test system: A549 NSCLC
UACC-257 melanoma = test system: UACC-257 melanoma
OVCAR-4 ovarian = test system: OVCAR-4 ovarian
HS 578T breast = test system: HS 578T breast
EKVX NSCLC = test system: EKVX NSCLC
CCRF-CEM leukemia = test system: CCRF-CEM leukemia
MOLT-4 leukemia = test system: MOLT-4 leukemia

Cc1ccc(NS(=O)(=O)c2cc(C)ccc2C)cc1
GI50 (786-0 renal): 10.6 µM
TGI (786-0 renal): 31.4 µM
GI50 (U251 CNS): 4.25 µM
TGI (U251 CNS): 23.8 µM
GI50 (BT-549 breast): 9.62 µM
TGI (BT-549 breast): 27.4 µM
GI50 (HCC-2998 colon): 7 µM
TGI (HCC-2998 colon): 28 µM
GI50 (SK-MEL-28 melanoma): 10.7 µM
TGI (SK-MEL-28 melanoma): 37.3 µM
GI50 (MCF7 breast): 3.59 µM
TGI (MCF7 breast): 83 µM
GI50 (UACC-62 melanoma): 3.08 µM
TGI (UACC-62 melanoma): 19.9 µM
GI50 (NCI/ADR-RES ovarian): 1.38 µM
TGI (NCI/ADR-RES ovarian): 8.95 µM
GI50 (DU-145 prostate): 6.17 µM
TGI (DU-145 prostate): 28.1 µM
GI50 (HCT-15 colon): 2.46 µM
TGI (HCT-15 colon): 33.9 µM
GI50 (SF-295 CNS): 2.62 µM
TGI (SF-295 CNS): 19.8 µM
GI50 (M14 melanoma): 2.43 µM
TGI (M14 melanoma): 11 µM
GI50 (KM12 colon): 1.73 µM
TGI (KM12 colon): 16.5 µM
GI50 (SNB-19 CNS): 4.36 µM
TGI (SNB-19 CNS): > 100 µM
GI50 (UO-31 renal): 12.1 µM
TGI (UO-31 renal): 72 µM
GI50 (SNB-75 CNS): 3.15 µM
TGI (SNB-75 CNS): 24.8 µM
GI50 (NCI-H460 lung): 3.4 µM
TGI (NCI-H460 lung): 13.5 µM
GI50 (RXF 393 renal): 2.9 µM
TGI (RXF 393 renal): 16.7 µM
GI50 (K-562 leukemia): 0.761 µM
TGI (K-562 leukemia): 29.4 µM
GI50 (COLO 205 colon): 3.49 µM
TGI (COLO 205 colon): 14.7 µM
GI50 (TK-10 renal): 10.2 µM
TGI (TK-10 renal): 37.7 µM
GI50 (HOP-92 NSCLC): 12.9 µM
TGI (HOP-92 NSCLC): 34.6 µM
GI50 (SF-539 CNS): 4.21 µM
TGI (SF-539 CNS): 15.1 µM
GI50 (NCI-H226 lung): 15.3 µM
TGI (NCI-H226 lung): 70.4 µM
GI50 (LOX IMVI melanoma): 5.13 µM
TGI (LOX IMVI melanoma): 22.5 µM
GI50 (SK-MEL-2 melanoma): 3.2 µM
TGI (SK-MEL-2 melanoma): 9.64 µM
GI50 (SF-268 CNS): 7 µM
TGI (SF-268 CNS): 35.2 µM
GI50 (HT29 colon): 2.84 µM
TGI (HT29 colon): 12.3 µM
GI50 (RPMI-8226 leukemia): 12.7 µM
TGI (RPMI-8226 leukemia): > 100 µM
GI50 (HOP-62 NSCLC): 4.49 µM
TGI (HOP-62 NSCLC): > 100 µM
GI50 (IGROV1 ovarian): 7.02 µM
TGI (IGROV1 ovarian): > 100 µM
GI50 (CAKI-1 renal): 3.25 µM
TGI (CAKI-1 renal): 29.2 µM
GI50 (OVCAR-3 ovarian): 2.53 µM
TGI (OVCAR-3 ovarian): 7.12 µM
GI50 (A498 renal): 2.54 µM
TGI (A498 renal): 15.4 µM
GI50 (OVCAR-8 ovarian): 5.94 µM
TGI (OVCAR-8 ovarian): 42.7 µM
GI50 (MALME-3M melanoma): 5.36 µM
TGI (MALME-3M melanoma): 38.6 µM
GI50 (OVCAR-5 ovarian): 15.4 µM
TGI (OVCAR-5 ovarian): 72.4 µM
GI50 (ACHN renal): 12.7 µM
TGI (ACHN renal): 90 µM
GI50 (SR leukemia): 1.18 µM
TGI (SR leukemia): 16.5 µM
GI50 (T-47D breast): 6.09 µM
TGI (T-47D breast): > 100 µM
GI50 (NCI-H522 lung): 2.02 µM
TGI (NCI-H522 lung): 7.61 µM
GI50 (MDA-MB-435): 0.351 µM
TGI (MDA-MB-435): 2.57 µM
GI50 (NCI-H23 lung): 4.65 µM
TGI (NCI-H23 lung): 50.5 µM
GI50 (SK-MEL-5 melanoma): 2.79 µM
TGI (SK-MEL-5 melanoma): 13.8 µM
GI50 (SN12C renal): 5.89 µM
TGI (SN12C renal): 19.9 µM
GI50 (SW-620 colon): 2.58 µM
TGI (SW-620 colon): > 100 µM
GI50 (MDA-MB-231 breast): 4.44 µM
TGI (MDA-MB-231 breast): 25.7 µM
GI50 (PC-3 prostate): 11.4 µM
TGI (PC-3 prostate): 66.5 µM
GI50 (HL-60(TB) leukemia): 3.65 µM
TGI (HL-60(TB) leukemia): 27 µM
GI50 (SK-OV-3 ovarian): 3.68 µM
TGI (SK-OV-3 ovarian): 21.3 µM
GI50 (HCT-116 colon): 3.55 µM
TGI (HCT-116 colon): 20.4 µM
GI50 (A549 NSCLC): 4.78 µM
TGI (A549 NSCLC): 38 µM
GI50 (UACC-257 melanoma): 10.2 µM
TGI (UACC-257 melanoma): 47.4 µM
GI50 (OVCAR-4 ovarian): 20.9 µM
TGI (OVCAR-4 ovarian): > 100 µM
GI50 (HS 578T breast): 10.9 µM
TGI (HS 578T breast): 77.7 µM
GI50 (EKVX NSCLC): 11.8 µM
TGI (EKVX NSCLC): 92.7 µM
GI50 (CCRF-CEM leukemia): 6.19 µM
TGI (CCRF-CEM leukemia): > 100 µM
GI50 (MOLT-4 leukemia): 5.43 µM
TGI (MOLT-4 leukemia): > 100 µM
